Assay results taken from patent US9175045B2, “Peptidomimetic macrocycles” (Aileron Therapeutics, Inc., priority 2008, dated 2015).
pEC50, pKd: −log10 of the molar value. Numbered stars: 1 amine (or outer) side, 2 acyl side, 3 side chain; on linkers, the order of the positions; unused ones are H or OH. Bridge positions count the residues as written; N and C are the ends. Square brackets hold non-standard residues; d marks the D form. Peptide text beside a SMILES is read from it. * marks the point of attachment. ξ: configuration not given here. ξαMeNle(6-ylidene) = CC(CCCC=[*:3])(N[*:1])C(=O)[*:2]; Nle = CCCC[C@H](N)C(=O)O; Aib = CC(C)(N)C(=O)O; Propionyl = CCC(=O)*

Experiments:
Jurkat cell line = format: cell-based; settings: for pEC50: 24 h
Method: Jurkat cell line (Clone E6-1, ATCC catalog #TIB-152) is grown in specific serum-supplemented media (RPMI-1640, Invitrogen catalog #22400) as recommended by ATCC. A day prior to the initiation of the study, cells are split at optimal cell density (2×10^5-5×10^5 cells/ml) to assure actively dividing cells. The next day, cells are washed twice in serum-free Opti-MEM media (Invitrogen, Catalog #51985) and cells are then plated at optimal cell density (10,000 cells/well) in 50 μl Opti-MEM media or Opti-MEM supplemented with 2% or 10% human serum (Bioreclamation, catalog #HMSRM) in 96-well white tissue culture plate (Nunc, catalog #136102).
For serum free experiment, crosslinked polypeptides are diluted from 2 mM stocks (100% DMSO) in sterile water to prepare 400 μM working solutions. The crosslinked polypeptides and controls are diluted 10-fold first and then serially two-fold diluted in Opti-MEM in dosing plates to provide concentrations of between 1.2 and 40 μM. 50 μl of each dilution is then added to the appropriate wells of the test plate to achieve final concentrations of the polypeptides equal to between 0.6 to 20 μM. For studies using Opti-MEM supplemented with human serum (Bioreclamation, catalog #HMSRM), crosslinked polypeptides are diluted from 10 mM stocks (100% DMSO) in sterile water to prepare 2 mM working solutions. The crosslinked polypeptides and controls are diluted 10-fold first and then serially two-fold diluted in Opti-MEM in the presence of 2% or 10% of human serum to provide concentrations of the polypeptides equal to between 6.25 to 200 μM in dosing plates. 50 μl of each dilution is then added to the appropriate wells of the test plate to achieve final concentrations of the polypeptides equal to between 3.125 to 100 μM. Controls included wells without polypeptides containing the same concentration of DMSO as the wells containing the macrocycles, wells containing 0.1% Triton X-100 and wells containing no cells. Plates are incubated for 24 hours at 37° C. in humidified 5% CO2 atmosphere.
At the end of the incubation period, CellTiter-Glo assay is performed according to manufacturer's instructions (Promega, catalog #G7573) and luminescence is measured using Synergy HT Plate reader (BioTek). Luminescence correlates with viability. A reduction in viability reflects the ability of the test compounds to induce programmed cell death via BAX and BAK.

human serum proteins = test: Apparent affinity to human serum proteins (Kd*) by EC50 shift analysis; format: in vitro ADME; settings: nonlinear regression of EC50 shift with serum, n = 1, P = 700 μM for 100% serum
Excerpt: The measurement of apparent Kd values for serum protein by EC50 shift analysis provides a simple and rapid means of quantifying the propensity of experimental compounds to bind HSA and other serum proteins. A linear relationship exists between the apparent EC50 in the presence of serum protein (EC′50) and the amount of serum protein added to an in vitro assay. This relationship is defined by the binding affinity of the compound for serum proteins, expressed as Kd*. This term is an experimentally determined, apparent dissociation constant that may result from the cumulative effects of multiple, experimentally indistinguishable, binding events. The form of this relationship is presented here in Eq. 0.3, and its derivation can be found in Copeland et al, Biorg. Med. Chem. Lett. 2004, 14:2309-2312. [formula] A significant proportion of serum protein binding can be ascribed to drug interactions with HSA, due to the very high concentration of this protein in serum (35-50 g/L or 530-758 μM). To calculate the Kd value for these compounds we have assumed that the shift in EC50 upon protein addition can be ascribed fully to the HSA present in the added serum, where P is 700 μM for 100% serum, P is 70 μM for 10% serum, etc. We further made the simplifying assumption that all of the compounds bind HSA with a 1:1 stoichiometry, so that the term n in Eq. (0.3) is fixed at unity. With these parameters in place we calculated the Kd* value for each stapled peptide from the changes in EC50 values with increasing serum (and serum protein) concentrations by nonlinear regression analysis of Eq. 0.3 using Mathematica 4.1 (Wolfram Research, Inc., www.wolfram.com). EC′50 values in whole blood are estimated by setting P in Eq. 0.3 to 700 μM [HSA].

[1] = Estimated free fraction in blood, calculated from Kd* with [HSA]total 700 μM; format: in vitro ADME; settings: human; [HSA]total set at 700 μM; read-out: Free Fraction est. in blood
Method: The free fraction in blood is estimated per the following equation, as derived by Trainor, Expert Opin. Drug Disc., 2007, 2(1):51-64, where [HSA]total is set at 700 μM. [formula]

| Compound | pEC50 (Jurkat cell line) | pKd (human serum proteins) | fraction unbound [1] | efficacy in serum-free media and in the presence of serum (Jurkat cell line; statement in words) |
| --- | --- | --- | --- | --- |
| CCCC[C@H](NC(=O)C1(C)CCCC=CCCCC(C)(NC(=O)[C@H](C)NC(=O)[C@H](CC(C)C)NC(=O)[C@H](Cc2c[nH]cn2)NC(=O)[C@H](CCCNC(=N)N)NC(=O)[C@H](C)NC(=O)[C@@H](NC(=O)[C@H](CC(N)=O)NC(=O)[C@H](CCCNC(=N)N)NC(=O)[C@@H](NC(=O)[C@H](C)NC(=O)[C@H](CC(=O)O)NC(C)=O)[C@@H](C)CC)[C@@H](C)CC)C(=O)N[C@@H](C(C)C)C(=O)NC(C)(C)C(=O)N[C@@H](CC(=O)O)C(=O)N1)C(=O)N[C@@H](C)C(=O)N[C@@H](CCCNC(=N)N)C(=O)N[C@@H](CO)C(=O)N[C@H](C(N)=O)[C@@H](C)CC (stereo partly shown) [Compound 4, Ac-DAIRNIARHLA$VAibD$NleARSI-NH2] (Ac-DAIRNIARHLA[ξαMeNle(6-ylidene)]V[Aib]D[ξαMeNle(6-ylidene)][Nle]ARSI-NH2; staple 12-16) | 6.00 | > 7.00 | < 0.001 |  |
| CCC(=O)N[C@@H](CCCNC(=N)N)C(=O)N[C@@H](CC(N)=O)C(=O)N[C@H](C(=O)NC(C)(C)C(=O)N[C@@H](CCCNC(=N)N)C(=O)N[C@@H](Cc1c[nH]cn1)C(=O)N[C@@H](CC(C)C)C(=O)NC(C)(C)C(=O)NC1(C)CCCC=CCCCC(C)(C(=O)N[C@@H](C)C(=O)N[C@@H](C)C(=O)N[C@@H](CCCNC(=N)N)C(=O)N[C@@H](CO)C(=O)N[C@H](C(N)=O)[C@@H](C)CC)NC(=O)[C@H](CC(=O)O)NC(=O)C(C)(C)NC(=O)[C@H](C(C)C)NC1=O)[C@@H](C)CC (stereo partly shown) [Compound 9, Pr-RNIAibRHLAib$VAibD$AARSI-NH2] (Propionyl-RNI[Aib]RHL[Aib][ξαMeNle(6-ylidene)]V[Aib]D[ξαMeNle(6-ylidene)]AARSI-NH2; staple 9-13) | 5.96 | 5.54 | 0.0048 |  |
| CC[C@H](C)[C@H](NC(=O)[C@H](Cc1c[nH]c2ccccc12)NC(=O)[C@H](CCCNC(=N)N)NC(C)=O)C(=O)N[C@@H](C)C(=O)N[C@@H](CCC(N)=O)C(=O)N[C@@H](CCC(N)=O)C(=O)N[C@@H](CC(C)C)C(=O)N[C@@H](CCCNC(=N)N)C(=O)NC1(C)CCCC=CCCCC(C)(C(=O)N[C@@H](Cc2ccccc2)C(=O)N[C@@H](CC(N)=O)C(=O)N[C@@H](C)C(=O)N[C@@H](Cc2ccc(O)cc2)C(=O)N[C@@H](Cc2ccc(O)cc2)C(=O)N[C@@H](C)C(=O)N[C@@H](CCCNC(=N)N)C(=O)N[C@@H](CCCNC(=N)N)C(N)=O)NC(=O)[C@H](CC(=O)O)NC(=O)CNC(=O)[C@H]([C@@H](C)CC)NC1=O (stereo partly shown) [Compound 13, Ac-RWIAQQLR$IGD$FNAYYARR-NH2] | 5.82 | 5.42 | 0.0063 |  |
| CC[C@H](C)[C@H](NC(=O)[C@H](Cc1c[nH]c2ccccc12)NC(=O)[C@H](CCCNC(=N)N)NC(C)=O)C(=O)N[C@@H](C)C(=O)N[C@@H](CCC(N)=O)C(=O)N[C@@H](C)C(=O)N[C@@H](CC(C)C)C(=O)N[C@@H](CCCNC(=N)N)C(=O)NC1(C)CCCC=CCCCC(C)(C(=O)N[C@@H](Cc2ccccc2)C(=O)N[C@@H](CC(N)=O)C(=O)N[C@@H](C)C(=O)N[C@@H](Cc2ccc(O)cc2)C(=O)N[C@@H](Cc2ccc(O)cc2)C(=O)N[C@@H](C)C(=O)N[C@@H](CCCNC(=N)N)C(=O)N[C@@H](CCCNC(=N)N)C(N)=O)NC(=O)[C@H](CC(N)=O)NC(=O)CNC(=O)[C@H]([C@@H](C)CC)NC1=O (stereo partly shown) [Compound 15, Ac-RWIAQALR$1GN$FNAYYARR-NH2] | 6.05 | 5.29 | 0.0084 |  |

Continued, in another order:

| pEC50 (Jurkat cell line) | pKd (human serum proteins) | fraction unbound [1] | Compound | efficacy in serum-free media and in the presence of serum (Jurkat cell line; statement in words) |
| --- | --- | --- | --- | --- |
| 5.89 | > 7.00 | < 0.001 | CC[C@H](C)[C@H](NC(C)=O)C(=O)N[C@@H](Cc1c[nH]c2ccccc12)C(=O)N[C@H](C(=O)N[C@@H](C)C(=O)N[C@@H](CCC(N)=O)C(=O)N[C@@H](CCC(=O)O)C(=O)N[C@@H](CC(C)C)C(=O)N[C@@H](CCCNC(=N)N)C(=O)NC1(C)CCCC=CCCCC(C)(C(=O)N[C@@H](Cc2ccccc2)C(=O)N[C@@H](CC(N)=O)C(=O)N[C@@H](C)C(=O)N[C@@H](Cc2ccc(O)cc2)C(=O)N[C@@H](Cc2ccc(O)cc2)C(=O)N[C@@H](C)C(=O)N[C@@H](CCCNC(=N)N)C(=O)N[C@@H](CCCNC(=N)N)C(N)=O)NC(=O)[C@H](CC(=O)O)NC(=O)CNC(=O)[C@H]([C@@H](C)CC)NC1=O)[C@@H](C)CC (stereo partly shown) [Compound 10, Ac-IWIAQELR$IGD$FNAYYARR-NH2] | high efficacy in serum-free media, which is substantially reduced in the presence of serum |
| 5.92 | 5.96 | 0.0018 | CC[C@H](C)[C@H](NC(C)=O)C(=O)N[C@@H](Cc1c[nH]c2ccccc12)C(=O)N[C@H](C(=O)N[C@@H](C)C(=O)N[C@@H](CCC(N)=O)C(=O)N[C@@H](CCC(N)=O)C(=O)N[C@@H](CC(C)C)C(=O)N[C@@H](CCCNC(=N)N)C(=O)NC1(C)CCCC=CCCCC(C)(C(=O)N[C@@H](Cc2ccccc2)C(=O)N[C@@H](CC(N)=O)C(=O)N[C@@H](C)C(=O)N[C@@H](Cc2ccc(O)cc2)C(=O)N[C@@H](Cc2ccc(O)cc2)C(=O)N[C@@H](C)C(=O)N[C@@H](CCCNC(=N)N)C(=O)N[C@@H](CCCNC(=N)N)C(N)=O)NC(=O)[C@H](CC(=O)O)NC(=O)CNC(=O)[C@H]([C@@H](C)CC)NC1=O)[C@@H](C)CC (stereo partly shown) [Compound 11, Ac-IWIAQQLR$IGD$FNAYYARR-NH2] |  |
| 5.89 | 5.64 | 0.0038 | CC[C@H](C)[C@H](NC(C)=O)C(=O)N[C@@H](Cc1c[nH]c2ccccc12)C(=O)N[C@H](C(=O)N[C@@H](C)C(=O)N[C@@H](CCC(N)=O)C(=O)N[C@@H](C)C(=O)N[C@@H](CC(C)C)C(=O)N[C@@H](CCCNC(=N)N)C(=O)NC1(C)CCCC=CCCCC(C)(C(=O)N[C@@H](Cc2ccccc2)C(=O)N[C@@H](CC(N)=O)C(=O)N[C@@H](C)C(=O)N[C@@H](Cc2ccc(O)cc2)C(=O)N[C@@H](Cc2ccc(O)cc2)C(=O)N[C@@H](C)C(=O)N[C@@H](CCCNC(=N)N)C(=O)N[C@@H](CCCNC(=N)N)C(N)=O)NC(=O)[C@H](CC(=O)O)NC(=O)CNC(=O)[C@H]([C@@H](C)CC)NC1=O)[C@@H](C)CC (stereo partly shown) [Compound 12, Ac-IWIAQALR$IGD$FNAYYARR-NH2] |  |
| 6.30 | 5.46 | 0.0058 | CC[C@H](C)[C@H](NC(C)=O)C(=O)N[C@@H](Cc1c[nH]c2ccccc12)C(=O)N[C@H](C(=O)N[C@@H](C)C(=O)N[C@@H](CCC(N)=O)C(=O)N[C@@H](C)C(=O)N[C@@H](CC(C)C)C(=O)N[C@@H](CCCNC(=N)N)C(=O)NC1(C)CCCC=CCCCC(C)(C(=O)N[C@@H](Cc2ccccc2)C(=O)N[C@@H](CC(N)=O)C(=O)N[C@@H](C)C(=O)N[C@@H](Cc2ccc(O)cc2)C(=O)N[C@@H](Cc2ccc(O)cc2)C(=O)N[C@@H](C)C(=O)N[C@@H](CCCNC(=N)N)C(=O)N[C@@H](CCCNC(=N)N)C(N)=O)NC(=O)[C@H](CC(N)=O)NC(=O)CNC(=O)[C@H]([C@@H](C)CC)NC1=O)[C@@H](C)CC (stereo partly shown) [Compound 16, Ac-IWIAQALR$IGN$FNAYYARR-NH2] |  |
